Counter-ions that a name gives are not always drawn. ± gives the standard deviation of the averaged measurements.
Tests used:
[1] = test system: Homo sapiens (human subject panel, olfactory perception); experiment: perceived odor pleasantness rating (rating 0-100); higher = more pleasant
Procedure, shortened: (§1)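 Stimuli were molecules diluted in paraffin oil at high and low concentrations, with 1 mL of each sniffed in randomized order across ten visits of 100 stimuli. Participants were 55 healthy humans aged 18–50, excluding the six lowest performers. Subjects who smelled a stimulus moved a computerized slider away from its starting point of 50, and positions were rescaled to 0–100. Familiarity, intensity and pleasantness are each reported as an average over subjects.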

[2] = test system: Homo sapiens (human subject panel, olfactory perception); experiment: perceived odor intensity rating (rating 0-100); higher = stronger perceived smell
Procedure, shortened: as §1

[3] = test system: Homo sapiens (human subject panel, olfactory perception); experiment: perceived odor familiarity rating (rating 0-100); higher = more familiar
Procedure, shortened: as §1

[4] = odor dilution in paraffin oil: 1/1,000
[5] = odor dilution in paraffin oil: 1/100,000
[6] = odor dilution in paraffin oil: 1/10,000,000
[7] = odor dilution in paraffin oil: 1/10

SMILES | perceived odor pleasantness rating [1, 4] | perceived odor pleasantness rating [1, 5] | perceived odor intensity rating [2, 4] | perceived odor intensity rating [2, 5] | perceived odor familiarity rating [3, 4] | perceived odor familiarity rating [3, 5] | perceived odor pleasantness rating [1, 6] | perceived odor intensity rating [2, 6] | perceived odor familiarity rating [3, 6] | perceived odor pleasantness rating [1, 7] | perceived odor intensity rating [2, 7] | perceived odor familiarity rating [3, 7]
CCCCCCC(=O)O [Heptanoic Acid] | 21.5 ± 20 | 30.4 ± 25 | 77.5 ± 23 | 49 ± 32 | 43.8 ± 31 | 36.5 ± 28 | – | – | – | – | – | –
CCCCCC=O [Hexanal] | – | 20.4 ± 20 | – | 78.2 ± 21 | – | 41.5 ± 33 | 47.2 ± 18 | 15 ± 16 | 29 ± 26 | – | – | –
CCCCCCOC=O [Hexyl Formate] | 49 ± 28 | 42.2 ± 23 | 60.7 ± 29 | 33.9 ± 30 | 42.8 ± 32 | 35.5 ± 28 | – | – | – | – | – | –
CCCCCCOC(=O)c1ccccc1 [Hexyl benzoate (replicate)] | 40.3 ± 23 | – | 35.9 ± 32 | – | 36.7 ± 29 | – | – | – | – | 31.9 ± 24 | 71.5 ± 26 | 38.4 ± 28
CCCCCCOC(=O)c1ccccc1 [Hexyl benzoate] | 37.4 ± 27 | – | 40.7 ± 33 | – | 37.8 ± 28 | – | – | – | – | 34.7 ± 25 | 69.5 ± 25 | 47.5 ± 28
CCCCCCOC(=O)CCCCC [Hexyl hexanoate] | 48.2 ± 23 | – | 34.4 ± 26 | – | 38 ± 29 | – | – | – | – | 43.8 ± 25 | 67.7 ± 26 | 39 ± 26
CCCCCCCC(=O)OCCCCCC [Hexyl octanoate] | 52.4 ± 18 | 46.4 ± 22 | 23 ± 19 | 16.5 ± 24 | 42.9 ± 32 | 28 ± 23 | – | – | – | – | – | –
CCCCCCOC(=O)CC [Hexyl propionate] | 52.1 ± 24 | 38.5 ± 22 | 59 ± 32 | 27.6 ± 32 | 43.1 ± 28 | 40.8 ± 33 | – | – | – | – | – | –
II [Iodine] | 51.6 ± 30 | – | 32.4 ± 30 | – | 41 ± 37 | – | – | – | – | 13.7 ± 22 | 77.7 ± 29 | 48.4 ± 33
IC(I)I [Iodoform] | 36.4 ± 22 | – | 68.4 ± 23 | – | 51.2 ± 29 | – | – | – | – | 30.7 ± 26 | 84.4 ± 16 | 52.6 ± 33
CCCC(=O)OCCC(C)C [Isoamyl butyrate] | 52.8 ± 28 | 45.5 ± 23 | 63.4 ± 26 | 20.4 ± 28 | 51.4 ± 31 | 36.4 ± 32 | – | – | – | – | – | –
CC(C)CCOC(=O)/C=C/c1ccccc1 [Isoamyl cinnamate] | 38.8 ± 23 | 56.7 ± 24 | 18.9 ± 23 | 22.5 ± 26 | 25.2 ± 25 | 40.7 ± 32 | – | – | – | – | – | –
CCCCCCCCCCCC(=O)OCCC(C)C [Isoamyl laurate] | 47.7 ± 22 | – | 20.3 ± 22 | – | 31.8 ± 22 | – | – | – | – | 33.7 ± 25 | 59.9 ± 29 | 41.5 ± 29
CCCCCCCC(=O)OCCC(C)C [Isoamyl octanoate] | 57.6 ± 22 | – | 24.3 ± 28 | – | 45.4 ± 32 | – | – | – | – | 50 ± 25 | 62.8 ± 29 | 45.2 ± 30
CC(C)CCN [Isoamylamine] | – | 40.2 ± 25 | – | 37.5 ± 30 | – | 37.5 ± 29 | 46.1 ± 22 | 15.1 ± 27 | 32.1 ± 27 | – | – | –
CC(C)COC(=O)c1ccccc1 [Isobutyl benzoate] | 49 ± 26 | – | 36.7 ± 31 | – | 41.1 ± 29 | – | – | – | – | 47.6 ± 29 | 78.7 ± 20 | 53.3 ± 30
CC(C)COC(=O)/C=C/c1ccccc1 [Isobutyl cinnamate] | 54 ± 27 | – | 49.3 ± 33 | – | 38.6 ± 30 | – | – | – | – | 41.3 ± 30 | 70.4 ± 24 | 45.6 ± 31
CC(C)COC(=O)Cc1ccccc1 [Isobutyl phenylacetate] | 45.5 ± 30 | 54.3 ± 24 | 52 ± 29 | 15.7 ± 21 | 49 ± 31 | 33.7 ± 29 | – | – | – | – | – | –

SMILES | perceived odor pleasantness rating [1, 4] | perceived odor pleasantness rating [1, 5] | perceived odor intensity rating [2, 4] | perceived odor intensity rating [2, 5] | perceived odor familiarity rating [3, 4] | perceived odor familiarity rating [3, 5] | perceived odor pleasantness rating [1, 6] | perceived odor intensity rating [2, 6] | perceived odor familiarity rating [3, 6] | perceived odor pleasantness rating [1, 7] | perceived odor intensity rating [2, 7] | perceived odor familiarity rating [3, 7]
CCC(=O)OCC(C)C [Isobutyl propionate] | 58.6 ± 23 | 47.8 ± 23 | 57.3 ± 30 | 31.5 ± 28 | 48 ± 27 | 41 ± 28 | – | – | – | – | – | –
CC(C)C=O [Isobutyraldehyde] | 24.3 ± 22 | 27.3 ± 19 | 77.5 ± 24 | 61.6 ± 28 | 43.1 ± 29 | 39 ± 31 | – | – | – | – | – | –
CC(C)C(=O)O [Isobutyric acid] | – | 25 ± 20 | – | 56.8 ± 30 | – | 43.5 ± 31 | 49 ± 27 | 22.6 ± 28 | 39.6 ± 26 | – | – | –
C/C=C\c1ccc(O)c(OC)c1 [Isoeugenol] | 68.4 ± 26 | 66.9 ± 24 | 81.6 ± 15 | 64.5 ± 23 | 71.4 ± 27 | 60 ± 29 | – | – | – | – | – | –
CC=Cc1ccc(OC(=O)Cc2ccccc2)c(OC)c1 [Isoeugenyl phenylacetate] | 56.2 ± 32 | 59.7 ± 26 | 78.7 ± 18 | 42.4 ± 32 | 68 ± 29 | 55.8 ± 30 | – | – | – | – | – | –
CC1=CC(=O)CC(C)(C)C1 [Isophorone] | 51.5 ± 25 | 54.3 ± 24 | 60.1 ± 25 | 21.6 ± 24 | 50.2 ± 35 | 40.4 ± 28 | – | – | – | – | – | –
C=C(C)OC(C)=O [Isopropenyl acetate] | – | 46.9 ± 24 | – | 27.1 ± 25 | – | 31.1 ± 27 | 45.5 ± 21 | 18.8 ± 26 | 38.2 ± 31 | – | – | –
CC(C)O [Isopropyl alcohol] | 41.1 ± 24 | 38.3 ± 18 | 11.8 ± 18 | 21.9 ± 23 | 29.4 ± 29 | 36.5 ± 28 | – | – | – | – | – | –
CCCCCCCCCCCCCC(=O)OC(C)C [Isopropyl myristate] | 50.6 ± 23 | – | 20.3 ± 25 | – | 35.2 ± 26 | – | – | – | – | 45.4 ± 21 | 26 ± 27 | 24.4 ± 24
C/C=C/c1ccc2c(c1)OCO2 [Isosafrole] | 59.6 ± 24 | 54.6 ± 18 | 44.7 ± 30 | 14.4 ± 15 | 56.4 ± 30 | 29 ± 28 | – | – | – | – | – | –
C[C@H](N)C(=O)O [L-Alanine] | 45.9 ± 20 | – | 14.7 ± 22 | – | 23.8 ± 22 | – | – | – | – | 55.7 ± 28 | 31.9 ± 30 | 40.9 ± 32
N=C(N)NCCC[C@H](N)C(=O)O [L-Arginine] | 44.6 ± 19 | – | 20.4 ± 22 | – | 30.3 ± 24 | – | – | – | – | 47.9 ± 24 | 19.2 ± 25 | 29.4 ± 33
N[C@@H](CS)C(=O)O [L-Cysteine] | 39 ± 23 | – | 33.4 ± 30 | – | 33.8 ± 28 | – | – | – | – | 12.8 ± 20 | 71.7 ± 30 | 46.2 ± 36
N[C@@H](CCC(=O)O)C(=O)O [L-Glutamic acid] | 47.5 ± 26 | – | 29.8 ± 27 | – | 30.3 ± 31 | – | – | – | – | 37.1 ± 23 | 52.7 ± 31 | 34.7 ± 30
NC(=O)CC[C@H](N)C(=O)O [L-Glutamine] | 51.7 ± 21 | 49.6 ± 27 | 29.1 ± 28 | 19 ± 27 | 32.6 ± 26 | 35.8 ± 30 | – | – | – | – | – | –
N[C@@H](Cc1c[nH]cn1)C(=O)O [L-Histidine] | 44.3 ± 26 | – | 19.9 ± 24 | – | 28.5 ± 28 | – | – | – | – | 34.6 ± 26 | 53.2 ± 34 | 44.2 ± 29
CC(C)C[C@H](N)C(=O)O [L-Leucine] | 46.4 ± 27 | – | 46.9 ± 29 | – | 42.9 ± 31 | – | – | – | – | 22.9 ± 26 | 70.9 ± 27 | 45.5 ± 31
NCCCC[C@H](N)C(=O)O [L-Lysine] | 27.4 ± 22 | – | 59.1 ± 30 | – | 48.9 ± 31 | – | – | – | – | 18.5 ± 24 | 81.7 ± 22 | 45.4 ± 34
